Data published in patent US20200345776A1, “CELL” (AUTOLUS LIMITED, priority 2017, published 2020).

What was measured:
Adenosine A2AR receptor = Adenosine A2AR receptor (Homo sapiens, UniProt P29274); settings: cited from earlier work
cancer cells = settings: cited from earlier work
SKOV3 cells [1] = assay: Co-culture of violacein-producing SupT1 cells with SKOV3 cells, live cell imaging; assay type: cell-based, human; settings: FIG. 12, co-culture
Experimental: The following day the indicated supT1 cells were added to the SKOV3 cells at density of 20,000 cells per well in a total volume of 200 ul cell culture medium. Cells were continuously monitored in a Incycute live cell imager and the number of viable SKOV3 cells enumerated every hour by counting the presence of red fluorescent nuclei.

MOLT-4 leukaemia = settings: cited from earlier work
[2] = tested on: KM12 colon-cancer cell lines; settings: cited from earlier work
[3] = tested on: NCI-H460 non-small-cell lung cancer; settings: cited from earlier work
SKOV3 cells [4] = settings: positive control of cell killing/inhibition, 10 ug/ml; cited from earlier work

Chain of Adenosine A2AR receptor (P29274 whole entry): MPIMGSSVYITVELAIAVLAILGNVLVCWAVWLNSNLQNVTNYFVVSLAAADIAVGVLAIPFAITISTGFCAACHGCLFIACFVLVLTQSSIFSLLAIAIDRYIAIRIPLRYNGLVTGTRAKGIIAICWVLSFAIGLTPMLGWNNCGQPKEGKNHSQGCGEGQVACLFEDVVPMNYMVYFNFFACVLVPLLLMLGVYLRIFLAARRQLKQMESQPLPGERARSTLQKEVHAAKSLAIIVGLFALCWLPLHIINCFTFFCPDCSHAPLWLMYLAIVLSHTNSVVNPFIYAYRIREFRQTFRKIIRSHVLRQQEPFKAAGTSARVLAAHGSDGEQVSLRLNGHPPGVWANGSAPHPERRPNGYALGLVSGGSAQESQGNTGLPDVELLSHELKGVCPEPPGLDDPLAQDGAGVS

In the case of Cn1c(=O)c2c(ncn2C)n(C)c1=O [Caffeine], the “Action on Adenosine A2AR receptor expressed on T cells” value (Adenosine A2AR receptor) is given as “known antagonist”.
For CC(C)=CCC/C(C)=C/CO [Geraniol], the “Effect against cancer cells in vitro” value (cancer cells) is listed as “anti-proliferative/pro-apoptotic effect”.
In the case of O=C1NC(c2c[nH]c3ccc(O)cc23)=C/C1=C1\C(=O)Nc2ccccc21 [Violacein], the “Toxicity of violacein produced by SupT1 cells to SKOV3 tumour cells” value (SKOV3 cells [1]) is given as “toxic”, the “Activity against MOLT-4 leukaemia” value (MOLT-4 leukaemia) is given as “has activity” and the “Activity against KM12 colon-cancer cell lines” value [2] is given as “has activity”. The “Activity against NCI-H460 non-small-cell lung cancer” value [3] was “has activity”.
For COc1cc([C@@H]2c3cc4c(cc3[C@@H](O[C@@H]3O[C@@H]5CO[C@@H](C)O[C@H]5[C@H](O)[C@H]3O)[C@H]3COC(=O)[C@H]23)OCO4)cc(OC)c1O [Etoposide], the “Apoptosis of SKOV3 cells” value (SKOV3 cells [4]) is listed as “induces the apoptosis”.
